Data set [1] addresses T1, Protein-glutamine gamma-glutamyltransferase (Homo sapiens, UniProt P21980).
T1 sequence (P21980 whole entry): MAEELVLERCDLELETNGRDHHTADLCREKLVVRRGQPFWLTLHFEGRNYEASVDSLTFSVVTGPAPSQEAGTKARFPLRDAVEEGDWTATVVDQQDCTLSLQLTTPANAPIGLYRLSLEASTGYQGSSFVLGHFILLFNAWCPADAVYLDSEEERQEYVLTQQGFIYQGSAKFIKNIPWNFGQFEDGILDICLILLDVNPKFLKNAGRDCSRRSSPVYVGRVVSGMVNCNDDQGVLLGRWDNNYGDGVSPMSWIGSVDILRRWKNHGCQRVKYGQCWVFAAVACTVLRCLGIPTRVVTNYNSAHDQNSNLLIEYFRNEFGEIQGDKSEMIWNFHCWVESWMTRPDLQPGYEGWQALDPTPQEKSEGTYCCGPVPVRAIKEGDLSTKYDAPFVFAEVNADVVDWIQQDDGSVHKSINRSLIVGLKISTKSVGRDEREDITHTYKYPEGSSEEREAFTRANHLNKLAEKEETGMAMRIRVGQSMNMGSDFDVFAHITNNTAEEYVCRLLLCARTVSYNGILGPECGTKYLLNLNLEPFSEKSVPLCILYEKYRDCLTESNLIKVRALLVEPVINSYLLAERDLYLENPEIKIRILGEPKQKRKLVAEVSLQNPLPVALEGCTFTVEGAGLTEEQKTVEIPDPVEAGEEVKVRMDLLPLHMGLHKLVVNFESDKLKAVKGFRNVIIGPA
Put plainly: Inhibition of recombinant human tissue transglutaminase-mediated biotin X-cadaverine incorporation into N,N'-dimethylcasein after 1 hr.

Data set [2] concerns the target T2, Coagulation factor XIII A chain (Homo sapiens, UniProt P00488).
T2 sequence (P00488 whole entry): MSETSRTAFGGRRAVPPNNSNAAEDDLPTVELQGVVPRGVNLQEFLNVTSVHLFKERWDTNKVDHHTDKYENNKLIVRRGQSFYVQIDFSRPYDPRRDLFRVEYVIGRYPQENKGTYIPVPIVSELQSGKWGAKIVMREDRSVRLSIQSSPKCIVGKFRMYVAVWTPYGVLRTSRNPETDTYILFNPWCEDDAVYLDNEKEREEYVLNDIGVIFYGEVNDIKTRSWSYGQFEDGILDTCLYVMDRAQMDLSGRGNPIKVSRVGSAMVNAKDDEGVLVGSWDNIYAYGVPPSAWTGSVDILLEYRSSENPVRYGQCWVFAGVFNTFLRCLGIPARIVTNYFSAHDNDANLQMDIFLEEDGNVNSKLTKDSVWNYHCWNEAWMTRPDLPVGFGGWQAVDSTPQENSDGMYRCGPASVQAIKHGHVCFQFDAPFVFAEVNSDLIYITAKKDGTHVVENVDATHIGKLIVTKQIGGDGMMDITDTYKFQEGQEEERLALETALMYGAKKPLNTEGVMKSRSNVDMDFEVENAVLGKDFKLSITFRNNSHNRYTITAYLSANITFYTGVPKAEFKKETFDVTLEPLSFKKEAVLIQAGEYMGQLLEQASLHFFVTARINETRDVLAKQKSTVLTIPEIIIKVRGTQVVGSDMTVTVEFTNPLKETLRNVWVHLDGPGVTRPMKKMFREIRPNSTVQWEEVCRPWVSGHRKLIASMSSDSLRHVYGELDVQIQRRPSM
Put plainly: Inhibition of recombinant human F13a-mediated biotin X-cadaverine incorporation into N,N'-dimethylcasein after 1 hr.

The next data set concerns NIH3T3. The data set is described as follows: Cytotoxicity against Swiss mouse 3T3 cells up to 250 uM after 72 hrs. It counts as cell-based. To be noted: nih3t3, 72 h.

The term IC50 denotes the concentration that inhibits the measured activity by half. Take `C[S+](C)CC(=O)CC[C@H](NC(=O)CNC(=O)OCc1ccccc1)C(=O)O`: the IC50 in data set [1] is 8 µM; in data set [2], over 200 µM.
On to `CCCc1c(CCC)[n+](C)c(SCC(=O)CC[C@H](NC(=O)[C@H](Cc2ccccc2)NC(=O)OCc2ccccc2)C(=O)O)n1C`, for which the results for the IC50 in data set [1] and in data set [2] were 5 µM and 10 µM, respectively.
The matching figures for `Cc1c(C)[n+](C)c(SCC(=O)CC[C@H](NC(=O)CNC(=O)OCc2ccccc2)C(=O)O)n1-c1ccccc1`: over 200 µM and over 200 µM.
The matching figures for `CC[S+](CC)CC(=O)CC[C@H](NC(=O)[C@H](Cc1ccccc1)NC(=O)OCc1ccccc1)C(=O)O`: 20 µM and over 200 µM.
For the molecule `Cc1c(C)[n+](C)c(SCC(=O)CC[C@H](NC(=O)[C@H](Cc2ccccc2)NC(=O)OCc2ccccc2)C(=O)O)n1-c1ccccc1`, the IC50 in data set [1] and in data set [2] was over 200 µM in each case.
As for `Cc1c(C)[n+](C)c(SCC(=O)CC[C@H](NC(=O)CNC(=O)OCc2ccccc2)C(=O)O)n1C`, the results for the IC50 in data set [1] and in data set [2] were 1 µM and 2 µM, respectively.
For the molecule `Cc1c(C)[n+](C)c(SCC(=O)CC[C@H](NC(=O)[C@H](Cc2ccccc2)NC(=O)OCc2ccccc2)C(=O)O)n1C.[Br-]`, the Activity result in the data set on NIH3T3 was “Non-toxic”. Moreover, the IC50 in data set [1] turned out to be 3 µM; in data set [2], 5 µM.
On to `C[S+](C)CC(=O)CC[C@H](NC(=O)[C@H](Cc1ccccc1)NC(=O)OCc1ccccc1)C(=O)O`, for which the IC50 worked out at 10 µM in data set [1] and 105 µM in data set [2].
`CCn1c(C)c(C)[n+](CC)c1SCC(=O)CC[C@H](NC(=O)CNC(=O)OCc1ccccc1)C(=O)O`: the IC50 in data set [1] and in data set [2] was over 200 µM in each case.
Regarding `CCC[n+]1c(C)c(C)n(C)c1SCC(=O)CC[C@H](NC(=O)CNC(=O)OCc1ccccc1)C(=O)O`, the values for the IC50 in data set [1] and in data set [2] were over 200 µM and 30 µM, respectively.
In the case of `CC[S+](CC)CC(=O)CC[C@H](NC(=O)CNC(=O)OCc1ccccc1)C(=O)O`, the results for the IC50 in data set [1] and in data set [2] were 20 µM and over 200 µM, respectively.
Regarding `CCC[n+]1c(C)c(C)n(C)c1SCC(=O)CC[C@H](NC(=O)[C@H](Cc1ccccc1)NC(=O)OCc1ccccc1)C(=O)O`, the IC50 in data set [1] and in data set [2] was over 200 µM throughout.
For the molecule `CCCc1c(CCC)[n+](C)c(SCC(=O)CC[C@H](NC(=O)CNC(=O)OCc2ccccc2)C(=O)O)n1C`, the IC50 came to 10 µM in data set [1] and 20 µM in data set [2].
As to `CCn1c(C)c(C)[n+](CC)c1SCC(=O)CC[C@H](NC(=O)[C@H](Cc1ccccc1)NC(=O)OCc1ccccc1)C(=O)O`, the IC50 in data set [1] was over 200 µM; in data set [2], 50 µM.
On to `Cc1c(C)[n+](C)c(SCC(=O)CC[C@H](NC(=O)[C@H](Cc2ccccc2)NC(=O)OCc2ccccc2)C(=O)O)n1Cc1ccccc1`, for which the IC50 in data set [1] and in data set [2] was over 200 µM in each case.
`Cc1c(C)[n+](C)c(SCC(=O)CC[C@H](NC(=O)CNC(=O)OCc2ccccc2)C(=O)O)n1Cc1ccccc1`: the IC50 in data set [1] and in data set [2] was over 200 µM each time.

For the origin of these results see ChEMBL document CHEMBL2413014, “Imidazolium-based warheads strongly influence activity of water-soluble peptidic transglutaminase inhibitors” (Eur J Med Chem, 2013).
